What all share (assay type): functional
Test [1] is described as follows: Antioxidant activity assessed as inhibition of linoleic acid peroxidation at 100 mg/l after 24 hr by spectrophotometric analysis.
The test system of test [2] is Radical scavenging activity. In words: Antioxidant activity assessed as DPPH free radical scavenging activity at 0.06 mg/ml after 5 to 60 min by spectrophotometric analysis. A general note: The DPPH test is a chemical assay of radical scavenging.
Test [3] in a line: Antioxidant activity assessed as reduction of Fe3+ to Fe2+ at 20 to 140 ug/ml after 30 min by spectrophotometric analysis.
Test [4] concerns Rattus norvegicus. The test is described as follows: Anti-inflammatory activity in Wistar Rattus norvegicus (rat) assessed as inhibition of carrageenan-induced paw edema at 30 mg/kg, po administered 30 min prior to carrageenan challenge measured at 60 min relative to untreated control.
The subject of test [5] is Rattus norvegicus. In words: Anti-inflammatory activity in Wistar Rattus norvegicus (rat) assessed as inhibition of carrageenan-induced paw edema at 30 mg/kg, po administered 30 min prior to carrageenan challenge measured at 30 min post carrageenan challenge relative to untreated control. Background: In the carrageenan paw model, swelling and tenderness develop within hours.

The test system of test [6] is Rattus norvegicus. In words: Anti-inflammatory activity in Wistar Rattus norvegicus (rat) assessed as inhibition of carrageenan-induced paw edema at 30 mg/kg, po administered 30 min prior to carrageenan challenge measured at 180 min relative to untreated control.
The subject of test [7] is Rattus norvegicus. The test is described as follows: Anti-inflammatory activity in Wistar Rattus norvegicus (rat) assessed as inhibition of carrageenan-induced paw edema at 30 mg/kg, po administered 30 min prior to carrageenan challenge measured at 120 min relative to untreated control.
Test [8] concerns Rattus norvegicus. The test is described as follows: Anti-inflammatory activity in Wistar Rattus norvegicus (rat) assessed as inhibition of carrageenan-induced paw edema at 30 mg/kg, po administered 30 min prior to carrageenan challenge measured at 90 min relative to untreated control.
Test [9] deals with Rattus norvegicus. In words: Effect on GST level in Wistar Rattus norvegicus (rat) liver measured CDNB conjugated per min per mg of protein at 30 mg/kg, po after 10 days (reference value: 0.86 +/- 0.08 mmol).
For test [10], the system named is Rattus norvegicus. In words: Effect on glutathione reductase level in Wistar Rattus norvegicus (rat) liver measured NADPH oxidized per min per mg of protein at 30 mg/kg, po after 10 days (reference value: 4.19 +/ 0.42 nmol).
The subject of test [11] is Rattus norvegicus. The test is described as follows: Effect on gamma-glutamyl transferase level in Wistar Rattus norvegicus (rat) serum at 30 mg/kg, po qd after 10 days (reference value: 0.57 +/- 0.04 U/I).
For test [12], the system named is Rattus norvegicus. In words: Effect on ALP level in Wistar Rattus norvegicus (rat) serum at 30 mg/kg, po qd after 10 days (reference value: 39.5 +/- 3.86 U/I).
The subject of test [13] is Rattus norvegicus. In words: Effect on SGPT level in Wistar Rattus norvegicus (rat) at 30 mg/kg, po qd after 10 days (reference value: 38.77 +/- 4.25 U/I).
In test [14] the test system is Rattus norvegicus. The test is described as follows: Effect on SGOT level in Wistar Rattus norvegicus (rat) at 30 mg/kg, po qd after 10 days (reference value: 145.50 +/- 13.86 U/I).
Test [15] has as its system Rattus norvegicus. The test is described as follows: Effect on glutathione peroxidase level in Wistar Rattus norvegicus (rat) liver measured GSH oxidized per min per mg of protein at 30 mg/kg, po after 10 days (reference value: 47.47 +/- 3.86 mmol).
Test [16] deals with Rattus norvegicus. The test is described as follows: Effect on GSH level in Wistar Rattus norvegicus (rat) liver measured per mg of protein at 30 mg/kg, po after 10 days (reference value: 1.84 +/- 0.092 mg).
Test [17] has as its system Rattus norvegicus. In words: Effect on TBARS level in Wistar Rattus norvegicus (rat) serum at 30 mg/kg, po qd after 10 days (reference value: 0.82 +/- 0.073 nmol/ml).
In test [18] the test system is Rattus norvegicus. In words: Effect on LDH level in Wistar Rattus norvegicus (rat) serum at 30 mg/kg, po qd after 10 days (reference value: 249.89 +/- 13.26 U/I).
In test [19] the test system is Rattus norvegicus. In words: Antipyretic activity in Wistar Rattus norvegicus (rat) assessed as decrease in Brewer's yeast solution-induced hyperthermia at 20 mg/kg, po measured after 3 hr (reference value: 36.8 +/- 1.9 degC).
In test [20] the test system is Rattus norvegicus. The test is described as follows: Antipyretic activity in Wistar Rattus norvegicus (rat) assessed as decrease in Brewer's yeast solution-induced hyperthermia at 20 mg/kg, po measured after 2 hr (reference value: 37 +/- 1.7 degC).
Test [21] relates to Rattus norvegicus. In words: Antipyretic activity in Wistar Rattus norvegicus (rat) assessed as decrease in Brewer's yeast solution-induced hyperthermia at 20 mg/kg, po measured after 1 hr (reference value: 37 +/- 3.55 degC).

Activity calls are given as the source filed them. The rule behind the calls is not given here.

With `Cc1c(C)c2c(c(C)c1O)CCC(C)(C(=O)O)O2` (centres undefined), the inhibition result in [1] is “Active”. For the same compound, the result in [2] was Active.

In the case of `Cc1cc(C(C)(C)C)c(O)c(C(C)(C)C)c1`, the inhibition result in test [1] is “Active”. The outcome in [3] was Active.

By inhibition in vivo is commonly meant the change of the read-out against control, counted positive when it falls. `O=C([O-])Cc1ccccc1Nc1c(Cl)cccc1Cl.[Na+]` [DICLOFENAC SODIUM]: the inhibition in vivo at 30 mg/kg in test [4] came out at 82%; in [5], 41.3%; in test [6] it was 100%; in [7], 92.8%; in [8], 86.3%. Further, the Activity in test [9] was 0.63 mmol; in [10] it was 3.28 nmol; in test [11], 1.37 U/L; in test [12], 75.25 U/L; in test [13], 84.43 U/L; in test [14] it was 201.27 U/L. Besides, the Activity in test [15] worked out at 32.09 mmol; in test [16] it was 0.79 mg; in test [17] it was 1.41 nmol/mL; in [18], 320.69 U/L.

Take `Cc1c(C)c2c(c(C)c1O)CC[C@@](C)(CCC[C@H](C)CCC[C@H](C)CCCC(C)C)O2`: the inhibition entry in [1] is “Active”. For the same compound, in test [3], the result was Active.

Regarding `CC(=O)Nc1ccc(O)cc1` [ACETAMINOPHEN], the figures for the T in [19], in [20] and in test [21] were 36.4 °C, 36.8 °C and 37 °C, respectively.

(Values after ChEMBL document CHEMBL3046756, “Synthesis, anti-inflammatory, and structure antioxidant activity relationship of novel 4-quinazoline” (Med Chem Res, 2013).)
